Assay results as given in PMC9067983, “Identification of highly selective type II kinase inhibitors with chiral peptidomimetic tails” (Journal of Enzyme Inhibition and Medicinal Chemistry, 2022).
Where a SMILES comes first, the peptide text is derived from it. [ ]: non-standard residue; d: D form. The star is where a group is joined. X1 = Cc1ccc(Nc2ncc3c(n2)N(C)C(=O)N(c2cc(C(=O)*)ccc2C)C3)cn1; Aib = CC(C)(N)C(=O)O

Legend:
Assay in all cases: kinase selectivity profiling
Assay type in all cases: biochemical
Conditions in all cases: 10µM ATP, read-out: % inhibition (relative to DMSO)
GRK3 = target: T1, GRK3 (Homo sapiens, UniProt P35626)
T1 construct: purchased Reaction Biology Corp
Method: (§1) Full panel kinase profiling and kinase IC50 measurement were performed by using Reaction Biology Corp. (San Diego, USA).

PDK1/PDPK1 = target: T2, PDK1/PDPK1 (Homo sapiens, UniProt O15530)
T2 construct: purchased Reaction Biology Corp
Method: as §1

MINK/MINK1 = target: T3, MINK/MINK1 (Homo sapiens, UniProt Q8N4C8)
T3 construct: purchased Reaction Biology Corp
Method: as §1

CDK17/cyclin Y (PCTK2) = target: T4, CDK17/cyclin Y (PCTK2) (Homo sapiens, UniProt Q00537)
T4 construct: purchased Reaction Biology Corp
T4 sequence (Q00537 whole entry): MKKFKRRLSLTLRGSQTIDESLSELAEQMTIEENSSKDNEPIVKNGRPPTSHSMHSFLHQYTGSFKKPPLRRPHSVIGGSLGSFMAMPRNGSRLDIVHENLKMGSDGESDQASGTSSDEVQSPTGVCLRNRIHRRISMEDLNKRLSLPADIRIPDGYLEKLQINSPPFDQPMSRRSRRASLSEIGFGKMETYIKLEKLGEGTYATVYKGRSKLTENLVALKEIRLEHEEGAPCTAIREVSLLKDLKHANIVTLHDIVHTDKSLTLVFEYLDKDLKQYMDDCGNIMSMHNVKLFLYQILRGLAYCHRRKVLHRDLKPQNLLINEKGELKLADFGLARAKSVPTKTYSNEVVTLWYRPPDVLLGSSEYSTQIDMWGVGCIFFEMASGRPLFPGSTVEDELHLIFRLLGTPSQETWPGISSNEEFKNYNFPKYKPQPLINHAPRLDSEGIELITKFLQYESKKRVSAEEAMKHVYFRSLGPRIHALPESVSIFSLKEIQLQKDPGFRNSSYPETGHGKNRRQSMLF
T4 sequence (Q8ND76 whole entry partner): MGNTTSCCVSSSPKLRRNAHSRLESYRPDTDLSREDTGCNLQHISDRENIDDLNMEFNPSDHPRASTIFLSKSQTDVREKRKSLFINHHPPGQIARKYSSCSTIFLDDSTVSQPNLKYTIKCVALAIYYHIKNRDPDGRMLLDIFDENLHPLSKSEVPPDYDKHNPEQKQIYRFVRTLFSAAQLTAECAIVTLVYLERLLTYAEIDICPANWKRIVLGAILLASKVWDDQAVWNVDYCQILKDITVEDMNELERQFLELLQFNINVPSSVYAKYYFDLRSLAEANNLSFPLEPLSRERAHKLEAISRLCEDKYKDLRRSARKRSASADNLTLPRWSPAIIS
Method: as §1

EPHA8 = target: T5, EPHA8 (Homo sapiens, UniProt P29322)
T5 construct: purchased Reaction Biology Corp
Method: as §1

p38a/MAPK14 = target: T6, p38a/MAPK14 (Homo sapiens, UniProt Q16539)
T6 construct: purchased Reaction Biology Corp
Method: as §1

CDK18/cyclin Y (PCTK3) = target: T7, CDK18/cyclin Y (PCTK3) (Homo sapiens, UniProt Q07002)
T7 construct: purchased Reaction Biology Corp
Method: as §1

RAF1 = target: T8, RAF1 (Homo sapiens, UniProt P04049)
T8 construct: purchased Reaction Biology Corp
T8 sequence (P04049 whole entry): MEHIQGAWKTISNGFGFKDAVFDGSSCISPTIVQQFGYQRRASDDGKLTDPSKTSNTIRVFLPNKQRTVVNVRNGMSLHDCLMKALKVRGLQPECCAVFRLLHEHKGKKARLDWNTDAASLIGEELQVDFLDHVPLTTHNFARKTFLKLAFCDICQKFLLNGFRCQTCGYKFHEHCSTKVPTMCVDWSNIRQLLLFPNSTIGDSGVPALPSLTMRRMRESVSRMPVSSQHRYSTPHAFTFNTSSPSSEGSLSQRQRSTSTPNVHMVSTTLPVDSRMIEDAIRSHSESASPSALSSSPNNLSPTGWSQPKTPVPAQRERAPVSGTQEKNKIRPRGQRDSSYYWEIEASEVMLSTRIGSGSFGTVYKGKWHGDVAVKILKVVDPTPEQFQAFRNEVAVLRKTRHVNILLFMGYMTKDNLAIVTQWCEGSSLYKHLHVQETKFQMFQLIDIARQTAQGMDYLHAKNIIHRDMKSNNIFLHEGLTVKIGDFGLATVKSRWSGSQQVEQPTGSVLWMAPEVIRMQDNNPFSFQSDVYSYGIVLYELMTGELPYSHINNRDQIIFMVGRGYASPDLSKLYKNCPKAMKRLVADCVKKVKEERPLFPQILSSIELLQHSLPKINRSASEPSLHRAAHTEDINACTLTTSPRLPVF
Method: as §1

PLK1 = target: T9, PLK1 (Homo sapiens, UniProt P53350)
T9 construct: purchased Reaction Biology Corp
Method: as §1

RSK2 = target: T10, RSK2 (Homo sapiens, UniProt P51812)
T10 construct: purchased Reaction Biology Corp
Method: as §1

STK16 = target: T11, STK16 (Homo sapiens, UniProt O75716)
T11 construct: purchased Reaction Biology Corp
Method: as §1

AKT1 = target: T12, AKT1 (Homo sapiens, UniProt P31749)
T12 construct: purchased Reaction Biology Corp
Method: as §1

PKMYT1 = target: T13, PKMYT1 (Homo sapiens, UniProt Q99640)
T13 construct: purchased Reaction Biology Corp
Method: as §1

COT1/MAP3K8 = target: T14, COT1/MAP3K8 (Homo sapiens, UniProt P41279)
T14 construct: purchased Reaction Biology Corp
Method: as §1

SGK2 = target: T15, SGK2 (Homo sapiens, UniProt Q9HBY8)
T15 construct: purchased Reaction Biology Corp
Method: as §1

SNARK/NUAK2 = target: T16, SNARK/NUAK2 (Homo sapiens, UniProt Q9H093)
T16 construct: purchased Reaction Biology Corp
Method: as §1

ALK3/BMPR1A = target: T17, ALK3/BMPR1A (Homo sapiens, UniProt P36894)
T17 construct: purchased Reaction Biology Corp
Method: as §1

NEK11 = target: T18, NEK11 (Homo sapiens, UniProt Q8NG66)
T18 construct: purchased Reaction Biology Corp
Method: as §1

GRK7 = target: T19, GRK7 (Homo sapiens, UniProt Q8WTQ7)
T19 construct: purchased Reaction Biology Corp
Method: as §1

PASK = target: T20, PASK (Homo sapiens, UniProt Q96RG2)
T20 construct: purchased Reaction Biology Corp
Method: as §1

CDK4/cyclin D3 = target: T21, CDK4/cyclin D3 (Homo sapiens, UniProt P11802)
T21 construct: purchased Reaction Biology Corp
Method: as §1

RIPK4 = target: T22, RIPK4 (Homo sapiens, UniProt P57078)
T22 construct: purchased Reaction Biology Corp
Method: as §1

PKCmu/PRKD1 = target: T23, PKCmu/PRKD1 (Homo sapiens, UniProt Q15139)
T23 construct: purchased Reaction Biology Corp
Method: as §1

CAMK1b = target: T24, CAMK1b (Homo sapiens, UniProt Q6P2M8)
T24 construct: purchased Reaction Biology Corp
Method: as §1

PKA = target: T25, PKA (Homo sapiens, UniProt P17612)
T25 construct: purchased Reaction Biology Corp
Method: as §1

PDGFRb = target: T26, PDGFRb (Homo sapiens, UniProt P09619)
T26 construct: purchased Reaction Biology Corp
T26 sequence (P09619 33-1106): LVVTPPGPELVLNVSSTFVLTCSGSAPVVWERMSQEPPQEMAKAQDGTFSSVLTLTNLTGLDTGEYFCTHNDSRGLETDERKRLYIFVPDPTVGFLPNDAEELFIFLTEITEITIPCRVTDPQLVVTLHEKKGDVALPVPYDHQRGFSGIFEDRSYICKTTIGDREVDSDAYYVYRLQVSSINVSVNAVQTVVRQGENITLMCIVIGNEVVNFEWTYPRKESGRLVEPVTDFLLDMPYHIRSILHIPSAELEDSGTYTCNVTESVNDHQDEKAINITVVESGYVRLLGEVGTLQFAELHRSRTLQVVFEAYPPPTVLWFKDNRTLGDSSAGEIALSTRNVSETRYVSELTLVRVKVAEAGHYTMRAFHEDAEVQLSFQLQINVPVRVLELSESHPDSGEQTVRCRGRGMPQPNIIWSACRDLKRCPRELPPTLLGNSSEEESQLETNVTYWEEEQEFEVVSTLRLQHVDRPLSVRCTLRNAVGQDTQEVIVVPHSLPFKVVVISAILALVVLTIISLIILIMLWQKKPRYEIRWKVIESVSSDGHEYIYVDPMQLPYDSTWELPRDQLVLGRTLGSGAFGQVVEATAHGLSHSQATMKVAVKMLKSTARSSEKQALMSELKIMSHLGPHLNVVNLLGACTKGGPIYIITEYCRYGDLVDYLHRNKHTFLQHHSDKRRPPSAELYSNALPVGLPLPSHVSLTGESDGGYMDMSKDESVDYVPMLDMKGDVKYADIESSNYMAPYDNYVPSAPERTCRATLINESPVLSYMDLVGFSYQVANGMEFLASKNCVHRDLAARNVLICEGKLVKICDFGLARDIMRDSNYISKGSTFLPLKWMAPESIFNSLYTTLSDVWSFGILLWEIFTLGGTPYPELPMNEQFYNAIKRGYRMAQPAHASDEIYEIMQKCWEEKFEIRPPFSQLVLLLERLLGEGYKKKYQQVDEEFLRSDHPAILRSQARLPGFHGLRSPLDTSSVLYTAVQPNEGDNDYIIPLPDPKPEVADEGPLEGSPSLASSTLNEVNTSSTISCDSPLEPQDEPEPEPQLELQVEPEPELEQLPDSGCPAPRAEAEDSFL
Method: as §1

CDK9/cyclin T1 = target: T27, CDK9/cyclin T1 (Homo sapiens, UniProt P50750)
T27 construct: purchased Reaction Biology Corp
Method: as §1

CK1a1L = target: T28, CK1a1L (Homo sapiens, UniProt Q8N752)
T28 construct: purchased Reaction Biology Corp
Method: as §1

ERK2/MAPK1 = target: T29, ERK2/MAPK1 (Homo sapiens, UniProt P28482)
T29 construct: purchased Reaction Biology Corp
T29 sequence (P28482 whole entry): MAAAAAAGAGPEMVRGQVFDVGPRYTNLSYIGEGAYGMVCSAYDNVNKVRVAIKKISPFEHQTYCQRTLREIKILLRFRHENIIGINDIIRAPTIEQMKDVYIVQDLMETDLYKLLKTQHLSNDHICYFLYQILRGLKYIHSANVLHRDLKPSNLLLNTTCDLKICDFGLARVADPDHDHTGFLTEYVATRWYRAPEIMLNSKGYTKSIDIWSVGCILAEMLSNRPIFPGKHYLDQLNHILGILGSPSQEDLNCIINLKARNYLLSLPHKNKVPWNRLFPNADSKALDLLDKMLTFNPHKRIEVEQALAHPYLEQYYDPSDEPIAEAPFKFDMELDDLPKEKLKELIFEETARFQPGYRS
Method: as §1

KSR2 = target: T30, KSR2 (Homo sapiens, UniProt Q6VAB6)
T30 construct: purchased Reaction Biology Corp
Method: as §1

LIMK1 = target: T31, LIMK1 (Homo sapiens, UniProt P53667)
T31 construct: purchased Reaction Biology Corp
T31 sequence (P53667 whole entry): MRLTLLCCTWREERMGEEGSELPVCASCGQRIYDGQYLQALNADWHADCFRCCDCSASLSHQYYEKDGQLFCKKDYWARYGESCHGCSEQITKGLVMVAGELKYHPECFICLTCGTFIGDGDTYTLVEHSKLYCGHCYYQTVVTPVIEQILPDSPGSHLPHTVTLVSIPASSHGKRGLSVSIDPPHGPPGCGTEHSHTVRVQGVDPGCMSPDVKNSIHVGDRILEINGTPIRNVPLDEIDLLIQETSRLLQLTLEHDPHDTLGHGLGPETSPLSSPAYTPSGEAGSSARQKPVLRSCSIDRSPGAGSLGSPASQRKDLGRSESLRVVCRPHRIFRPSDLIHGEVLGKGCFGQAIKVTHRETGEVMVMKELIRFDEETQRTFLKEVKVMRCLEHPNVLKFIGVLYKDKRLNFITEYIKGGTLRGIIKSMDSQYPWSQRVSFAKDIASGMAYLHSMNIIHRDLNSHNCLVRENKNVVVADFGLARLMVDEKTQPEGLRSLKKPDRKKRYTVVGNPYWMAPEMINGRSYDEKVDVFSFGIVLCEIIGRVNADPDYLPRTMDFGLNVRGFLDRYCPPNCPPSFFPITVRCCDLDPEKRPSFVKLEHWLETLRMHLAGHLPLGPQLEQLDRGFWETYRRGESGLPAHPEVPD
Method: as §1

NEK1 = target: T32, NEK1 (Homo sapiens, UniProt Q96PY6)
T32 construct: purchased Reaction Biology Corp
Method: as §1

MST3/STK24 = target: T33, MST3/STK24 (Homo sapiens, UniProt Q9Y6E0)
T33 construct: purchased Reaction Biology Corp
T33 sequence (Q9Y6E0 whole entry): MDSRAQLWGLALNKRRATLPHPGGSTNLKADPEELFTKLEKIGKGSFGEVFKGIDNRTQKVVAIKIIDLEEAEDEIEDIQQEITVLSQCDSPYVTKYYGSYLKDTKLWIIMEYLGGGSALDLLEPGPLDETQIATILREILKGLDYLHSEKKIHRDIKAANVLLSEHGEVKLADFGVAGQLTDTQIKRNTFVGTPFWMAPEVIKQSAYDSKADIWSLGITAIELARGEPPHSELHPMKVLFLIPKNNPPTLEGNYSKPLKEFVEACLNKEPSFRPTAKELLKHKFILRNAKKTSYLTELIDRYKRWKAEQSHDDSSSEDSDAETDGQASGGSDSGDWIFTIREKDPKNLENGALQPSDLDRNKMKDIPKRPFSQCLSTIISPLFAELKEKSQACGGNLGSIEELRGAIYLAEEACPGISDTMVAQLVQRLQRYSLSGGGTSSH
Method: as §1

AKT3 = target: T34, AKT3 (Homo sapiens, UniProt Q9Y243)
T34 construct: purchased Reaction Biology Corp
Method: as §1

PIM1 = target: T35, PIM1 (Homo sapiens, UniProt P11309)
T35 construct: purchased Reaction Biology Corp
Method: as §1

SBK1 = target: T36, SBK1 (Homo sapiens, UniProt Q52WX2)
T36 construct: purchased Reaction Biology Corp
Method: as §1

TRKB = target: T37, TRKB (Homo sapiens, UniProt Q16620)
T37 construct: purchased Reaction Biology Corp
T37 sequence (Q16620 32-822): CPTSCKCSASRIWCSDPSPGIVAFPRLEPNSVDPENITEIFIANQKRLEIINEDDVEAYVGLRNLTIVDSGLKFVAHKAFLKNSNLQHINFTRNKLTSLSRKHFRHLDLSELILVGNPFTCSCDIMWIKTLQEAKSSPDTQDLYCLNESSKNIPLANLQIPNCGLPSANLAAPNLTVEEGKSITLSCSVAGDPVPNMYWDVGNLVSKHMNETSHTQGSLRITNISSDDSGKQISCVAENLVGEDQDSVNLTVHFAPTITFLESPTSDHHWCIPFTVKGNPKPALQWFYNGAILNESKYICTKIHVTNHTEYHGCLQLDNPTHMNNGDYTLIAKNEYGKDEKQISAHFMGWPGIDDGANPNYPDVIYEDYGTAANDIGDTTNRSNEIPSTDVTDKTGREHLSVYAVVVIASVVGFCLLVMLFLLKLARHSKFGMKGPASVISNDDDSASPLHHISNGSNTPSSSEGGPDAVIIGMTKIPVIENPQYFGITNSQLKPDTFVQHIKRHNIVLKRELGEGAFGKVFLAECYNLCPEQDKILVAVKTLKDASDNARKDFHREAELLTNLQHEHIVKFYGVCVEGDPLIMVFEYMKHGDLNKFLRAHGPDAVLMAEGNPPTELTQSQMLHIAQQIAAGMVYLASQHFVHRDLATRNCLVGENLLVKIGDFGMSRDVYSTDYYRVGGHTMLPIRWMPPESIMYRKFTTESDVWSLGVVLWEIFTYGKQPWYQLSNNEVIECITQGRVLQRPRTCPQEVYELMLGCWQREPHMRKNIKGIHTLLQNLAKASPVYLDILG
Method: as §1

CLK2 = target: T38, CLK2 (Homo sapiens, UniProt P49760)
T38 construct: purchased Reaction Biology Corp
Method: as §1

ALK = target: T39, ALK (Homo sapiens, UniProt Q9UM73)
T39 construct: purchased Reaction Biology Corp
Method: as §1

SRPK2 = target: T40, SRPK2 (Homo sapiens, UniProt P78362)
T40 construct: purchased Reaction Biology Corp
Method: as §1

PKCepsilon = target: T41, PKCepsilon (Homo sapiens, UniProt Q02156)
T41 construct: purchased Reaction Biology Corp
Method: as §1

MST4 = target: T42, MST4 (Homo sapiens, UniProt Q9P289)
T42 construct: purchased Reaction Biology Corp
Method: as §1

IR = target: T43, IR (Homo sapiens, UniProt P06213)
T43 construct: purchased Reaction Biology Corp
Method: as §1

Which inhibition at 1 µM (GRK3) does the source give for `Cc1ccc(Nc2ncc3c(n2)N(C)C(=O)N(c2cc(C(=O)N[C@H](C(=O)N4CCC[C@H]4C(=O)NC(C)(C)C(=O)N[C@@H](CC(C)C)C(=O)N(C)C)C(C)C)ccc2C)C3)cn1` [7a, (S)-N-(1-(((S)-1-(dimethylamino)-4-methyl-1-oxopentan-2-yl)amino)-2-methyl-1-oxopropan-2-yl)-1-((4-methyl-3-(1-methyl-7-((6-methylpyridin-3-yl)amino)-2-oxo-1,4-dihydropyrimido[4,5-d]pyrimidin-3(2H)-yl)benzoyl)-L-valyl)pyrrolidine-2-carboxamide] (X1-VP[Aib]L-NMe2) here?
The inhibition at 1 µM was 0%.

What about the inhibition at 1 µM (PDK1/PDPK1) of the same compound?
Its inhibition at 1 µM is 1%.

What about the inhibition at 1 µM (MINK/MINK1) of the same compound?
Its inhibition at 1 µM is 2%.

And the inhibition at 1 µM (CDK17/cyclin Y (PCTK2))?
The inhibition at 1 µM was 7%.

What about the inhibition at 1 µM (EPHA8) of the same compound?
Its inhibition at 1 µM is 0%.

What about the inhibition at 1 µM (p38a/MAPK14) of the same compound?
Its inhibition at 1 µM is 15%.

What about the inhibition at 1 µM (CDK18/cyclin Y (PCTK3)) of the same compound?
Its inhibition at 1 µM is 4%.

What about the inhibition at 1 µM (RAF1) of the same compound?
Its inhibition at 1 µM is 69%.

And the inhibition at 1 µM (PLK1)?
Its inhibition at 1 µM is 0%.

What about the inhibition at 1 µM (RSK2) of the same compound?
The inhibition at 1 µM was 0%.

And the inhibition at 1 µM (STK16)?
The inhibition at 1 µM was 0%.

And the inhibition at 1 µM (AKT1)?
Its inhibition at 1 µM is 8%.

And the inhibition at 1 µM (PKMYT1)?
Its inhibition at 1 µM is 8%.

What about the inhibition at 1 µM (COT1/MAP3K8) of the same compound?
Its inhibition at 1 µM is 1%.

And the inhibition at 1 µM (SGK2)?
The inhibition at 1 µM was 0%.

And the inhibition at 1 µM (SNARK/NUAK2)?
Its inhibition at 1 µM is 6%.

What about the inhibition at 1 µM (ALK3/BMPR1A) of the same compound?
The inhibition at 1 µM was 3%.

What about the inhibition at 1 µM (NEK11) of the same compound?
Its inhibition at 1 µM is 1%.

What about the inhibition at 1 µM (GRK7) of the same compound?
The inhibition at 1 µM was 0%.

And the inhibition at 1 µM (PASK)?
The inhibition at 1 µM was 0%.

What about the inhibition at 1 µM (CDK4/cyclin D3) of the same compound?
Its inhibition at 1 µM is 3%.

What about the inhibition at 1 µM (RIPK4) of the same compound?
The inhibition at 1 µM was 15%.

What about the inhibition at 1 µM (PKCmu/PRKD1) of the same compound?
The inhibition at 1 µM was 0%.

What about the inhibition at 1 µM (CAMK1b) of the same compound?
Its inhibition at 1 µM is 15%.

What about the inhibition at 1 µM (PKA) of the same compound?
Its inhibition at 1 µM is 6%.

And the inhibition at 1 µM (PDGFRb)?
Its inhibition at 1 µM is 48%.

And the inhibition at 1 µM (CDK9/cyclin T1)?
Its inhibition at 1 µM is 0%.

What about the inhibition at 1 µM (CK1a1L) of the same compound?
Its inhibition at 1 µM is 0%.

What about the inhibition at 1 µM (ERK2/MAPK1) of the same compound?
The inhibition at 1 µM was 0%.

What about the inhibition at 1 µM (KSR2) of the same compound?
Its inhibition at 1 µM is 5%.

What about the inhibition at 1 µM (LIMK1) of the same compound?
Its inhibition at 1 µM is 51%.

And the inhibition at 1 µM (NEK1)?
The inhibition at 1 µM was 0%.

And the inhibition at 1 µM (MST3/STK24)?
The inhibition at 1 µM was 0%.

And the inhibition at 1 µM (AKT3)?
Its inhibition at 1 µM is 10%.

What about the inhibition at 1 µM (PIM1) of the same compound?
The inhibition at 1 µM was 2%.

And the inhibition at 1 µM (SBK1)?
The inhibition at 1 µM was 0%.

What about the inhibition at 1 µM (TRKB) of the same compound?
Its inhibition at 1 µM is 5%.

What about the inhibition at 1 µM (CLK2) of the same compound?
The inhibition at 1 µM was 0%.

What about the inhibition at 1 µM (ALK) of the same compound?
The inhibition at 1 µM was 0%.

And the inhibition at 1 µM (SRPK2)?
The inhibition at 1 µM was 0%.

And the inhibition at 1 µM (PKCepsilon)?
Its inhibition at 1 µM is 1%.

What about the inhibition at 1 µM (MST4) of the same compound?
The inhibition at 1 µM was 0%.

And the inhibition at 1 µM (IR)?
Its inhibition at 1 µM is 0%.
